Assay [1] in a line: Loss of affinity of compound was determined for bacteriophage anti-gp120 monoclonal antibody by competition ELISA assay; 16 fold loss in affinity was observed.
Assay [2] is described as follows: Binding inhibitory activity of compound was evaluated against bacteriophage anti-gp120 monoclonal antibody by competition ELISA assay. In general terms: An ELISA detects its analyte on a solid surface through an enzyme-linked reagent.
The nature of assay [3]: Loss of affinity of compound was determined for bacteriophage anti-gp120 monoclonal antibody by competition ELISA assay; 10 fold loss in affinity was observed.
Assay [4] is described as follows: Loss of affinity of compound was determined for bacteriophage anti-gp120 monoclonal antibody by competition ELISA assay; 3 fold loss in affinity was observed.

By IC50 is commonly meant the concentration that gives 50% inhibition. In turn, H-ESTRPA-OH gave a Loss of affinity in assay [1] of 16. In assay [2], this substance displayed a half-inhibitory concentration (IC50) of 10 µM.
H-ESARPM-OH displayed a Loss of affinity in assay [3] of 10. The same substance displayed a half-inhibitory concentration (IC50) in assay [2] of 6.3 µM.
For the substance H-ASTRPM-OH, the Loss of affinity in assay [4] came out at 3. The substance further had an IC50 in assay [2] of 1.8 µM.
In assay [3], H-EATRPM-OH came in with a Loss of affinity of 10. This substance yielded a concentration for half-maximal inhibition (IC50) in assay [2] of 6.3 µM.
In assay [2], H-ESTRPM-OH had a half-inhibitory concentration (IC50) of 0.63 µM.
As for H-ESTRAM-OH, the IC50 in assay [2] turned out to be 0.63 µM.
As to H-ESTAPM-OH, in assay [1], the Loss of affinity was found to be 16. Moreover, in assay [2], the concentration for half-maximal inhibition (IC50) amounted to 10 µM.
